The values that follow come from BindingDB's records for doi:10.7270/Q2PR7TCX (The Scripps Research Institute Molecular Screening Center, 2007).

Where a name gives a salt, the structure may show the parent alone.

In general, IC50 refers to the concentration that inhibits the measured activity by half. A lower IC50 goes with greater potency in that assay.

This assay concerns the target Steroidogenic factor 1 (Homo sapiens, UniProt Q13285). The assay can be described thus: SF-1 inhibitors in Gal4 reporter counter-screen, dose response, counter-screen for RORA inhibitor project, cell-based, CHO-K1, Gal4-SF-1 LBD, luciferase luminescence (AID 611). Background: The purpose of a counterscreen is to sort out artefacts and off-target activity.
Setting [1] is: inactive by the depositor's call.

Chain of Steroidogenic factor 1 (Q13285 whole entry, the tested form may be a part): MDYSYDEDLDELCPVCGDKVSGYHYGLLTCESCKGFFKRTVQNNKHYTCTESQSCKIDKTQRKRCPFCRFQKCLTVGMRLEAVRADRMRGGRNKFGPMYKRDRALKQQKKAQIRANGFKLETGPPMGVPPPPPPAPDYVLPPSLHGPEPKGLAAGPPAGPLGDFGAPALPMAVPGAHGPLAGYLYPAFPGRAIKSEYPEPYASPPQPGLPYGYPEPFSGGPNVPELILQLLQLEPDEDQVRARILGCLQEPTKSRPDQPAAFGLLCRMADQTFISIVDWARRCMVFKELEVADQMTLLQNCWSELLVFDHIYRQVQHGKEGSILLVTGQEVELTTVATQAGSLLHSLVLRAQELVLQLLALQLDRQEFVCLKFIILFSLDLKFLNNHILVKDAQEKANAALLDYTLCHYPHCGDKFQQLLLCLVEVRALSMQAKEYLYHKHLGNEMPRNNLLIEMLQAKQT

In turn, `CCOC(=O)c1[n-]c2ccccc2c1[N+]#N` [(Z)-(3-diazonio-2-indolylidene)-ethoxymethanolate] displayed a half-inhibitory concentration (IC50) of 13.2 µM. That is a double-digit micromolar value.

`Cc1csc(SCC(=O)c2cc(C)n(Cc3cccs3)c2C)n1` [1-[2,5-dimethyl-1-(2-thenyl)pyrrol-3-yl]-2-[(4-methylthiazol-2-yl)thio]ethanone] registered a half-inhibitory concentration (IC50) of 9.88 µM. This IC50 and that of the compound before are within 1.5-fold of each other.

In turn, `Cc1ccc(-c2noc(CCCC(=O)Nc3cccnc3)n2)cc1` [4-[3-(4-methylphenyl)-1,2,4-oxadiazol-5-yl]-N-(3-pyridinyl)butanamide] registered an IC50 of 8.03 µM.

In turn, `Nc1nnnn1N=C/C(Br)=C/c1ccccc1` [1-[[(Z)-2-bromanyl-3-phenyl-prop-2-enylidene]amino]-1,2,3,4-tetrazol-5-amine] gave an IC50 of 4.19 µM.

The compound `Cc1nnc(Sc2nc(Sc3nnc(C)s3)nc(N3CCN(C)CC3)n2)s1` [2-(4-Methyl-piperazin-1-yl)-4,6-bis-(5-methyl-[1,3,4]thiadiazol-2-ylsulfanyl)-[1,3,5]triazine] yielded an IC50 of 3.55 µM.

With `O=C1C(=CNc2ccc3c(c2)OCO3)CCc2ccccc21` [(2E)-2-[(1,3-benzodioxol-5-ylamino)methylene]tetralin-1-one], 3.32 µM corresponded to half-maximal inhibition (IC50).

As for `O=S1(=O)C=C(Sc2nnc(-c3ccccc3)o2)c2ccccc21`, the IC50 was 6.04 µM.

The compound `Cc1ccc2[nH]c3c(N4CCN(Cc5ccc6c(c5)OCO6)CC4)ncnc3c2c1` had a half-inhibitory concentration (IC50) under setting [1] of 10.2 µM.

The compound `COc1ccc(-c2cc3nc4n(c(=O)c3s2)CCOC4)cc1` [2-(4-methoxyphenyl)-7,8-dihydro-5H-thieno[1,2]pyrimido[4,5-a][1,4]oxazin-10-one] had an IC50 of 7.8 µM.

In turn, `Cc1cc(C)nc(SC2=CS(=O)(=O)c3ccccc32)n1` [2-[(1,1-dioxido-1-benzothien-3-yl)thio]-4,6-dimethylpyrimidine] yielded an IC50 under setting [1] of 13 µM.

`CN(C)C(=O)CCc1nc(-c2ccc(C(C)(C)C)cc2)no1` [3-[3-(4-tert-butylphenyl)-1,2,4-oxadiazol-5-yl]-N,N-dimethyl-propanamide]: the IC50 is 1.1 µM. That is a single-digit micromolar value.

For `CS(=O)(=O)c1nc(-c2ccco2)cc(C(F)(F)F)n1` [MLS000044646], the IC50 under setting [1] turned out to be 10.8 µM.

Take `CCn1nc(-c2cccs2)nc2c(=O)n(C)c(=O)nc1-2` [1-ethyl-6-methyl-3-thiophen-2-yl-pyrimido[5,4-e][1,2,4]triazine-5,7-dione]: the midpoint of inhibition, the IC50, lay at 2.19 µM.

The compound `Nc1ccc2oc(-c3cc(Br)ccc3Cl)nc2c1` [2-(5-bromanyl-2-chloranyl-phenyl)-1,3-benzoxazol-5-amine] had an IC50 under setting [1] of 66.2 µM.

The compound `Cc1ccc(-c2nnc(SCC(=O)Nc3ccccc3F)o2)cc1` [MLS000114725] had an IC50 of 9.9 µM.

Compound `CC(=O)c1c(C)[nH]c(C(=O)Nc2ccc(C)cn2)c1C` [SMR000026816] yielded an IC50 of 4.92 µM.

`O=C(NC1CC1)c1ccc(-c2nc3ccccc3s2)s1` [5-(1,3-benzothiazol-2-yl)-N-cyclopropyl-2-thiophenecarboxamide] had an IC50 of 9.53 µM. This IC50 lies about 1.9-fold higher than the previous one.

`CCOc1ccc(OCc2ccc(C(=O)OCc3ccccn3)o2)cc1` [5-(4-Ethoxy-phenoxymethyl)-furan-2-carboxylic acid pyridin-2-ylmethyl ester] returned an IC50 of more than 11 µM.

Regarding `CCOC(=O)CS(=O)(=O)c1nc(-c2ccccc2)cc(C(F)(F)F)n1` [2-[4-phenyl-6-(trifluoromethyl)pyrimidin-2-yl]sulfonylacetic acid ethyl ester], the IC50 was determined as 9.74 µM.

As for `Cc1cc(C=Nn2cnnc2)c(C)n1-c1ccc(OCc2ccc(F)cc2)cc1` [MLS000112167], the IC50 came out at 3.4 µM. This IC50 is about 2.9-fold lower than that of the compound before.

Compound `O=C(Nc1ccc(N2CCOCC2)cc1)c1cnsn1` [MLS000063695] displayed a 50% inhibitory concentration (IC50) of 6.57 µM.

`N#Cc1c(NC(=O)CSc2nc[nH]n2)sc2c1CCCCC2` [N-(3-cyano-5,6,7,8-tetrahydro-4H-cyclohepta[b]thien-2-yl)-2-(1H-1,2,4-triazol-3-ylthio)acetamide]: the IC50 was determined as 0.237 µM.

As for `COc1ccc(C(=O)Nn2c(SCC(=O)NCC3CCCO3)nc3ccccc3c2=O)cc1` (centres undefined) [4-methoxy-N-[4-oxidanylidene-2-[2-oxidanylidene-2-(oxolan-2-ylmethylamino)ethyl]sulfanyl-quinazolin-3-yl]benzamide], the IC50 is 4.51 µM.

`CCN1C=CC(=C2C(=O)c3ccccc3C2=O)C=C1` [2-(1-ethyl-4-pyridinylidene)indene-1,3-dione]: the IC50 came to 1.34 µM. Compared with the last compound, the IC50 is about 3.4-fold lower.

Consider `Nc1nc(Cl)nc2c1ncn2[C@H]1C[C@H](O)[C@@H](CO)O1` [2-CHLORO-2'-DEOXYADENOSINE], for which the midpoint of inhibition, the IC50, lay at 0.666 µM. Compared with the last compound, the IC50 is about 2-fold lower.

`CCCCOc1ncnc2c1[nH]c1ccc(F)cc12` [4-butoxy-8-fluoranyl-5H-pyrimido[5,4-b]indole] came in with an IC50 of 4.2 µM. This IC50 lies about 6.3-fold higher than the previous one.

`Cc1oc2cc3c(C(=O)OCCN(C)C)c(C)oc3cc2c1C(=O)OCCN(C)C` [2,6-Dimethyl-benzo[1,2-b;4,5-b']difuran-3,7-dicarboxylic acid bis-(2-dimethylamino-ethyl) ester]: the half-maximal inhibitory concentration (IC50) was found to be 0.892 µM.

In the case of `O=S1(=O)Nc2c(ccc3cccnc23)-c2ccccc21` [5H-quinolino[8,7-c][1,2]benzothiazine 6,6-dioxide], half-maximal inhibition (IC50) was put at 4.43 µM.

The compound `Cc1ccc(-c2nnc(Nc3ccccc3)o2)cc1` [5-(4-methylphenyl)-N-phenyl-1,3,4-oxadiazol-2-amine] yielded a half-maximal inhibitory concentration (IC50) of more than 3.67 µM.

The compound `CC(C)NCC(O)Cn1c2c(c3ccccc31)CCc1c-2cnn1-c1ccccc1` (centres undefined) [1-(3-phenyl-4,5-dihydropyrazolo[4,3-a]carbazol-10-yl)-3-(propan-2-ylamino)-2-propanol] displayed an IC50 of 8.75 µM.

`COC(=O)c1ccc(-c2nc(-c3cccs3)no2)cc1` [4-(3-thiophen-2-yl-1,2,4-oxadiazol-5-yl)benzoic acid methyl ester]: the IC50 was more than 3.67 µM.

Turning to `NCCCCCc1nnc(SCc2ccccc2Cl)o1` [5-[5-[(2-chlorobenzyl)thio]-1,3,4-oxadiazol-2-yl]pentylamine;hydrochloride], the IC50 was more than 99 µM.

`CC(NC(=O)Nc1nnc(C(F)(F)F)s1)(C(F)(F)F)C(F)(F)F` [1-(1,1,1,3,3,3-hexafluoro-2-methylpropan-2-yl)-3-[5-(trifluoromethyl)-1,3,4-thiadiazol-2-yl]urea] gave a half-inhibitory concentration (IC50) of 5.6 µM.

`Cc1cc(NC(=O)c2ccc3c(c2)OCCO3)no1` [MLS000064124] came in with an IC50 of 9.29 µM.

As for `CCOC(=O)N1CCC(NC(=O)C2CCCN(Cc3nc(-c4cccc(Cl)c4)oc3C)C2)CC1` (centres undefined) [4-[[1-[[2-(3-chlorophenyl)-5-methyl-oxazol-4-yl]methyl]nipecotoyl]amino]piperidine-1-carboxylic acid ethyl ester], 6.81 µM corresponded to half-maximal inhibition (IC50).

As to `CC(C)Cn1c(N)c(C(=O)CSc2ccc3c(c2)OCCO3)c(=O)n(C)c1=O` [6-amino-5-[2-(2,3-dihydro-1,4-benzodioxin-6-ylsulfanyl)acetyl]-3-methyl-1-(2-methylpropyl)pyrimidine-2,4-dione], it took 5.29 µM to reach half-maximal inhibition (IC50).

`c1ccc(-c2noc(-c3ccc4c(c3)OCO4)n2)nc1` [2-[5-(1,3-benzodioxol-5-yl)-1,2,4-oxadiazol-3-yl]pyridine] showed an IC50 of 1.26 µM.

`COc1ccc(CCNc2c(C)c(C)nc3ncnn23)cc1` [(5,6-Dimethyl-[1,2,4]triazolo[1,5-a]pyrimidin-7-yl)-[2-(4-methoxy-phenyl)-ethyl]-amine] showed an IC50 of 6.45 µM.

The compound `Cc1cc(C)cc(Nc2ccc(C(=O)O)cc2N)c1` [3-amino-4-(3,5-dimethylanilino)benzoic acid] had an IC50 of more than 99 µM.

Take `CCOc1ccc(-c2nc(CSCC(=O)NCc3ccco3)c(C)o2)cc1` [2-({[2-(4-ethoxyphenyl)-5-methyl-1,3-oxazol-4-yl]methyl}thio)-N-(2-furylmethyl)acetamide]: half-maximal inhibition (IC50) was put at 0.259 µM.

Compound `Cc1ccc(-c2nc(-c3ccccn3)no2)cc1Cl` [5-(3-chloranyl-4-methyl-phenyl)-3-pyridin-2-yl-1,2,4-oxadiazole] displayed a half-maximal inhibitory concentration (IC50) of 2.22 µM. This IC50 is about 8.6-fold higher than that of the compound before.

The compound `COc1ccc(-n2ncc3c(N4CCCCC4)ncnc32)cc1` [1-(4-methoxyphenyl)-4-(1-piperidinyl)pyrazolo[3,4-d]pyrimidine] registered an IC50 of 2 µM.

The compound `COCCn1c(C)cc(C(=O)CSc2nnc(C)s2)c1C` [1-[1-(2-methoxyethyl)-2,5-dimethyl-1H-pyrrol-3-yl]-2-[(5-methyl-1,3,4-thiadiazol-2-yl)thio]ethanone] returned an IC50 of 3.46 µM.

Under setting [1], `c1ccc(CN2CCN(c3ncnc4c3[nH]c3ccccc34)CC2)cc1` [MLS000078384] returned a 50% inhibitory concentration (IC50) of 11.3 µM.

Take `Cc1noc(C)c1S(=O)(=O)Nc1ccc(C(=O)N2CCN(c3ccc(Cl)cc3)CC2)cc1` [MLS000045033]: the IC50 under setting [1] stood at 21.1 µM. Against the preceding compound, the IC50 is about 1.9-fold higher.

`Cc1ccc(-c2cc3c(nn2)-c2ccccc2C3=O)cc1` [3-(4-methylphenyl)-5H-indeno[1,2-c]pyridazin-5-one] had an IC50 of 2.62 µM. That is a single-digit micromolar value.

The compound `CC(=O)c1ccc(N2CCN(c3ccc(C(F)(F)F)cn3)CC2)cc1` [1-[4-[4-[5-(trifluoromethyl)-2-pyridinyl]-1-piperazinyl]phenyl]ethanone] had an IC50 under setting [1] of 11.4 µM.

Compound `CCOc1ccc(-c2nc(CSCC(=O)NCCN3CCOCC3)c(C)o2)cc1` [2-({[2-(4-ethoxyphenyl)-5-methyl-1,3-oxazol-4-yl]methyl}thio)-N-(2-morpholin-4-ylethyl)acetamide] came in with an IC50 of 4 µM.

The compound `Clc1ccc(-n2ncc3c(N4CCCCCC4)ncnc32)cc1` [4-(1-azepanyl)-1-(4-chlorophenyl)pyrazolo[3,4-d]pyrimidine] returned an IC50 of 0.846 µM.

Compound `CN(C)c1nc(N)nc(CSc2nnnn2-c2cccc3ccccc23)n1` [2-N,2-N-dimethyl-6-[(1-naphthalen-1-yltetrazol-5-yl)sulfanylmethyl]-1,3,5-triazine-2,4-diamine] showed an IC50 of more than 99 µM.

On to `COc1cccc(-c2nnc3n2N=C(C(C)(C)C)CS3)c1` [6-tert-butyl-3-(3-methoxyphenyl)-7H-[1,2,4]triazolo[3,4-b][1,3,4]thiadiazine], for which half-maximal inhibition (IC50) required 7.59 µM.

In turn, `CC1(C)COCN1S(=O)(=O)c1ccc(C(=O)Nc2nnc(-c3ccc(Cl)s3)o2)cc1` [MLS000086346] showed an IC50 under setting [1] of 12.2 µM.

`Cc1ccc(Nc2cc(C)nn2-c2nc(C)cc(O)n2)cc1` [6-methyl-2-[3-methyl-5-(4-methylanilino)pyrazol-1-yl]-1H-pyrimidin-4-one]: the IC50 turned out to be 4.15 µM.

`COCCNC(=O)CSCc1nc(-c2ccc(SC)cc2)oc1C` [MLS000089367] came in with an IC50 of 0.656 µM.
